In patent US5871779A, “Treatment of arthropathies with vanadate compounds or analogues thereof” (Mount Sinai Hospital Corporation, priority 1996, dated 1999):
Values joined by “and” are separate entries in the source; they are usually repeats but may differ in a detail not shown here. Equal entries are not always repeated.

Experiments:
SK-OV-3 = experiment: MTT cytotoxicity assay, SK-OV-3; assay type: cell-based, human; details: SK-OV-3, 72 hours
Procedure: (§1) The relative cytotoxicity of various compounds on tumor cell lines was investigated as follows. Cytotoxicity was measured by the MTT microculture tetrazolium colorimetric assay for all cell lines. The relative cytotoxicity of Na3 VO4 and VOSO4 was investigated using the following tumor cell lines: P388(WT) murine leukemia, P388 (ADR) murine leukemia, Lewis murine lung, MCF7 (WT) human breast, […] human lung, K562 human erythroleukemia, A431 human epidermal, LS180 human colon and SK-OV-3 human ovarian. The relative cytotoxicity of doxorubicin, Na3 VO4 and VOSO4 was investigated using the following tumor cell lines: P388(WT) murine leukemia, P388 (ADR) murine leukemia, MCF7(WT) human breast and MCF7 (ADR) human breast. The relative cytotoxicity of BMOV, BEOV and naglivan was investigated using the following tumor cell lines: P388(WT) murine leukemia, P388 (ADR) murine leukemia, Lewis murine lung, H460 human lung, K562 human erythroleukemia, and SK-OV-3 human ovarian.
(§2) The cells were plated (number of cells/well was different from cell line to cell depending on the dividing rate) in a 96-well microculture plate 24 hours prior to the delivery of the vanadium compounds. Serial concentrations of solutions of the test compounds (0.05-100 μM) were delivered to the corresponding wells. A blank column (without cells) and a control column (with cells without vanadium) were left. The cells were incubated for 72 hours continuously. An MTT solution was added to each well after this incubation period and the cells were incubated for 4 more hours for the completion of the dyeing process. The medium was removed find DMSO was added to each well. The absorbance of each well was read with a Titertek Multiskan (310C) spectrophotometer at 570 nm. The percentage of the absorbance of each vanadium concentration relative to the control calculated and the value of the 50% growth inhibition concentration (IC50) was obtained from the % control versus concentration plot. Each assay was repeated three times and the reported IC50 values were the mean of these three runs.

[1] = system: proliferating chondrocytes; experiment: viability / proliferation of proliferating chondrocytes (low cell density); assay type: cell-based; details: summary statement
Procedure: In order to compare the effect of orthovanadate on non-proliferating and proliferating chondrocytes, chondrocytes were plated at both high cell density (2×10^6 to 4×10^6 cells/per well on a six well plate) (nonproliferating) and at a lower cell density (5×10^5 to 1×10^6 cells/per well on a six well plate) (proliferating) and then maintained for 48 hours. The cells were then incubated in media (HAMS F12) containing 0-50 μM Orthovanadate for an additional 48 hours. The cells were harvested and the number of viable cells determined.

H460 = experiment: MTT cytotoxicity assay, H460; assay type: cell-based, human; details: H460, 72 hours
Procedure: as §1, §2

Lewis lung = experiment: MTT cytotoxicity assay, Lewis lung; assay type: cell-based, murine; details: 72 hours
Procedure: as §1, §2

P388 (WT) = experiment: MTT cytotoxicity assay, P388 (WT); assay type: cell-based, murine; details: P388 (WT), 72 hours; read-out: IC50 Value
Procedure: as §1, §2

P388 (ADR) = experiment: MTT cytotoxicity assay, P388 (ADR); assay type: cell-based, murine; details: P388 (ADR), 72 hours; read-out: IC50 Value
Procedure: as §1, §2

K562 = experiment: MTT cytotoxicity assay, K562; assay type: cell-based, human; details: K562, 72 hours
Procedure: as §1
as §2, with “Serial concentrations of solutions of the test compounds (0.05-100 μM) were delivered to the corresponding wells.” left out

collagenase = collagenase production by chondrocytes (ELISA); assay type: cell-based, bovine; details: summary statement
Procedure: The effect of orthovanadate and N-acetylcysteine on fos, jun and collagenase expression were examined. Bovine articular chondrocytes were isolated and plated as previously described (Kandel R. A. et al. Biochim. Biophys. Acta. 1053, 130-134, 1990). In order to determine the effect of orthovanadate on IL 1 and PMA (phorbol ester) induced responses, chondrocytes were incubated with orthovanadate (100 μM) for 2 hours before stimulation with IL 1 (10 ng/ml) or PMA ([…]). Collagenase production was determined by incubating chondrocytes for 24 hours with IL 1 or PMA and the cell conditioned medium was assayed for collagenase activity using an ELISA procedure as described previously (Kandel et al. supra). PLA2 activity was measured by incorporating ^3 H-arachidonic acid (^3 H-AA) into the cells and then incubating the cells with medium containing 1 mg/ml BSA, either alone or in the presence of IL 1 or PMA, for 10 min. as previously described (Conquer, J. A. […], Biochim. Biophys. Acta. 1134, 1-6). The amount of ^3 H-AA liberated into the supernatant was determined. To measure PGE2 production, chondrocytes were incubated for 6 hours in Ham's F12 medium, either alone or with IL 1 or PMA. The supernatant was analyzed by RIA using an antibody specific for PGE2 (Dr. S. A. Jones, Mount Sinai Hospital, Toronto, Canada). In order to examine the expression of c-fos and c-jun, chondrocytes were incubated for 1 hour in the presence of IL-1, PMA or AA (3 μM). Chondrocytes were washed in PBS and the total RNA extracted as previously described (Cruz. et al, 1991, Biochem. J. 277, 327-330). RNA samples were run on formaldehyde agarose gels and transferred to nylon membrane for northern analysis using cDNA probes for c-fos and c-jun.

[2] = body weight of mice, BEOV and N-acetylcysteine (Example 21); assay type: in vivo; set-up: Body weight / Body weight, Average: unit not given here; details: for Body weight: individual mice; for death of animal: mouse 5
Procedure: (§3) Forty mice were subcutaneously injected with 100 μl of MDAY-2D tumor cell suspension (8×10^6 /100 μl)on day 1. On day 6, the mice were randomly divided into […] groups and injected following drugs twice a day. The […] groups were as follows: Group 1: 100 μl of PBS; Group 2: 100 μl of 2% NAC(ip) and 0.1 mg BEOV in 100 μl BS; Group 3: 100 μl of 2% NAC(ip) and 0.25 mg BEOV in 100 μl PBS; and Group 4: 100 μl of 2% NAC(ip) and 0.5 mg BEOV in 100 μl PBS. On injection day 9, the mice were sacrificed and the tumors dissected.

MDAY-2D tumor [3] = experiment: BEOV and N-acetylcysteine on tumor growth (Example 21); assay type: in vivo, mice; set-up: unit not given here; details: for Tumour weight: individual mice
Procedure: The effectiveness of BEOV in reducing tumor growth was investigated and the effective concentration required for inhibiting tumor growth was determined as follows.
as §3

carcinogenesis = details: G. Shklar et al.; cited from earlier work
MDAY-2D tumor [4] = experiment: ammonium bisvanadate and N-acetylcysteine on tumor growth (Example 22); assay type: in vivo, mice; set-up: Tumour weight: unit not given here; details: for Tumour weight: individual mice
Procedure: Forty mice were subcutaneously injected with MDAY-2D tumor cells (8×10^5 /100 μl) on day 1. On day 6, the mice were randomly divided into six groups and injected with the following drugs twice a day: Group 1: 100 μl of PBS; Group 2: 100 μl of 2% NAC(ip) and 0.1 mg ammonium bisvanadate in 100 μl PBS; Group 3: 100 μl of 2% NAC(ip) and 0.25 mg ammonium bisvanadate in 100 μl PBS; Group 4;100 μl of 2% NAC(ip) and 0.5 mg ammonium bisvanadate in 100 μl PBS; Group 5: 100 μl of 2% NAC (ip) and 0.75 mg ammonium bisvanadate in 100 μl PBS and; Group 6: 100 μl of 2% NAC (ip) and 1.0 mg ammonium bisvanadate.
On injection day 11 the mice were sacrificed and the tumors dissected. […] The effective concentrations of the vanadate complexes are from 0.25mg/100 μl and 0.5 mg/100 μl.

MDAY-D2 tumor = MDAY-D2 tumor growth in vivo, orthovanadate, vanadyl sulphate, vanadyl hydroperoxide (Example 6B); set-up: species or system mice
Text: In order to examine the ability of vanadyl compounds to reduce tumor formation, growth and metastases, a specific animal model which allows investigation of all of these processes in the same animal was chosen. This model involves the injection of a metastatic haematopoietic cell line, MDAY-D2, into mice subcutaneously. These cells form a tumor at the site of injection and its size can be easily determined. In addition, these cells metastasize to the liver and metastases can be detected histologically after day 17 to 19. This model provides a very sensitive and reproducible approach to investigate the effect of vanadyl compounds on tumor growth and metastases.
In a separate experiment using the same animal model, the effect of orthovanadate, vanadyl sulphate and vanadyl hydroperoxide administration on tumor growth in vivo was examined. On Day 1, 20 mice were injected with 2×10^5 MDAY-D2 cell subcutaneously. The mice were divided into four groups of five mice. At day 5, the animals were injected subcutaneously with 50 μl of water alone or containing 10 mg/ml of orthovanadate, 10 mg/ml of vanadyl sulphate, or 10 mg/ml of vanadyl hydroperoxide. This treatment was continued daily for 16 days. At day 21, the mice were sacrificed and the tumors dissected and weighed.

MDAY-D2 cells = experiment: viability of MDAY-D2 cells; assay type: cell-based, mouse; details: 0-50 μM, 48 hours, three forms compared
Procedure: Fos and jun activity are also required for cellular proliferation in many tumor cell lines. Accordingly, the effect of orthovanadate on adherent cells and cell suspensions were examined. MDAY-D2 (a mouse lymphoid cell line grown in suspension) and HTB14 cells (an adherent human primary astrocytoma cell line) were incubated in media containing 0-50 μM orthovanadate for 48 hours. The cells were harvested and the number of viable cells determined.
Three different forms of vanadyl compounds were examined for their effect on viability of cancer cell lines. MDAY-D2 cells were incubated in media containing 0-50 μM orthovanadate, vanadyl sulphate, or vanadyl hydroperoxide for 48 hours. The cells were harvested and the number of viable cells determined. […] Although there were slight differences in sensitivity, the overall cell death was similar.

CCc1occc(=O)c1[O][V](=[O])[O]c1c(CC)occc1=O [BEOV, bis(ethylmaltolato) oxovanadium]
IC50 (SK-OV-3): 2.6 µM
proliferation of cells, such as chondrocytes [1]: inhibit
IC50 (H460): 4.4 µM
IC50 (Lewis lung): 97.4 µM
IC50 (P388 (WT)): 82.6 µM
IC50 (P388 (ADR)): 39.8 µM
IC50 (K562): 374 µM
production of metalloproteases, such as collagenase (collagenase): inhibit
Body weight, Average ([2]; 0.1 mg BEOV + 2% NAC): 16.5
Body weight ([2]; 0.1 mg BEOV + 2% NAC): 17.8 and 15.5 and 15.9 and 16.8
death of animal ([2]; 0.1 mg BEOV + 2% NAC): died
Body weight, Average ([2]; 0.25 mg BEOV + 2% NAC): 16.02
Body weight ([2]; 0.25 mg BEOV + 2% NAC): 15.9 and 15.7 and 16.9 and 15.4 and 16.2
Body weight, Average ([2]; 0.5 mg BEOV + 2% NAC): 15.25
Body weight ([2]; 0.5 mg BEOV + 2% NAC): 13.7 and 13.9 and 16 and 17.4
death of animal ([2]; 0.5 mg BEOV + 2% NAC): died
Tumour weight, Average (MDAY-2D tumor [3]; 0.1 mg BEOV + 2% NAC): 0.82
Tumour weight (MDAY-2D tumor [3]; 0.1 mg BEOV twice a day + 2% NAC ip): 0.9 and 0.6 and 0.8 and 1.0
Tumour weight, Average (MDAY-2D tumor [3]; 0.25 mg BEOV + 2% NAC): 0.08
Tumour weight (MDAY-2D tumor [3]; 0.25 mg BEOV twice a day + 2% NAC ip): 0.28 and 0.0 and 0.12
Tumour weight, Average (MDAY-2D tumor [3]; 0.5 mg BEOV + 2% NAC): 0.03
Tumour weight (MDAY-2D tumor [3]; 0.5 mg BEOV twice a day + 2% NAC ip): 0.1 and 0.0

N[C@@H](CCC(=O)N[C@@H](CS)C(=O)NCC(=O)O)C(=O)O [glutathione]
anticancer activity (carcinogenesis): anticancer activity

CC1=C(/C=C/C(C)=C/C=C/C(C)=C/C=C/C=C(C)/C=C/C=C(C)/C=C/C2=C(C)CCCC2(C)C)C(C)(C)CCC1 [β-carotene]
anticancer activity (carcinogenesis): anticancer activity

ammonium bis vanadate [ABOV]
proliferation of cells, such as chondrocytes [1]: inhibit
production of metalloproteases, such as collagenase (collagenase): inhibit
Tumour weight (MDAY-2D tumor [4]; 0.1 mg ABOV twice a day + 2% NAC ip): 0.62 and 0.19 and 0.74 and 0.53 and 0.32 and 0.50
Tumour weight (MDAY-2D tumor [4]; 0.25 mg ABOV twice a day + 2% NAC ip): 0.25 and 0.33 and 0.54 and 0.20 and 0.0 and 0.18
Tumour weight (MDAY-2D tumor [4]; 0.5 mg ABOV twice a day + 2% NAC ip): 0.21 and 0.50 and 0.07 and 0.34 and 0.0
death of animals (MDAY-2D tumor [4]; 0.75 mg ABOV twice a day + 2% NAC ip): died
death of animals (MDAY-2D tumor [4]; 1.0 mg ABOV twice a day + 2% NAC ip): died
inhibition of tumor growth (MDAY-2D tumor [4]; with NAC): inhibited the tumor growth

n-tocopherol
anticancer activity (carcinogenesis): anticancer activity

vanadyl hydroperoxide
animal deaths (MDAY-D2 tumor; groups of five, 10 mg/ml, 50 μl daily s.c.): all five died
efficacy in reducing tumor growth (MDAY-D2 tumor; mouse, in vivo): too toxic to evaluate its efficacy
killing of MDAY-D2 cells (MDAY-D2 cells): equally effective

vitamin E
anticancer activity (carcinogenesis): anticancer activity
